According to PMC8200971, “Design, Synthesis, Biological Evaluation and Silico Prediction of Novel Sinomenine Derivatives” (Molecules, 2021):

Experiments:
[1] = test system: HepG2 (human hepatocellular carcinoma cell lines); assay: MTT assay, growth inhibition; type: cell-based; conditions: HepG2, 20 μM, 24 h
Procedure: (§1) The in vitro growth inhibitory activity of the sinomenine derivatives (5a–5k) was evaluated against different three cell lines, MCF-7, Hela, and HepG2, using sinomenine as the reference compound kept under the same conditions in an MTT assay. The inhibition ratios of synthetic compounds were determined at concentrations of 2, 20 and 200 μM.
(§2) The MCF-7 (human breast cancer cell lines), Hela (human cervical cancer cells lines), and HepG2 (human hepatocellular carcinoma cell lines) cells were used to measure the cytotoxicity of the 5a–5k series, which were provided by the Academy of Military Medical Sciences (Beijing, China). The cell lines were maintained on RPMI 1640 nutrient medium supplemented with 10% heat-inactivated fetal bovine serum, 1% L-glutamine, […] and 100 units/mL penicillin. The cells were grown at 37 °C in a humidified atmosphere with 5% CO2 and were subcultured two to three times a week.
(§3) The MTT (3-(4, 5-dimethyl thiazol-2-yl)-2, 5-diphenyl tetrazolium bromide) assay with a slight modification was used to determine the inhibition effects of substrates 5a–5k. MCF-7, Hela and HepG2 were used for testing. Briefly, cells (5.0 × 10^3 cells per well) were seeded in 100 μL of the RPMI-1640 medium in 96-well plates for 24 h, treated with drugs and complete medium in wells up to 200 μL for 24 h. RPMI-1640 samples were employed as negative controls, and cisplatin as a positive control. Four quadruplicates of each concentration for all tested compounds were evaluated in three independent assays. For this, after removing the drug containing media 100 μL, 10 μL of MTT solution was added to wells and incubated for 4 h under similar conditions. After that, the supernatant from each well was removed and the formazan crystals formed by viable cells were dissolved with DMSO (100 μL/well). At the end of incubation, optical densities at 570 nm were measured using a plate reader (BIO-TEK, USA). Cell viability was calculated based on the measured absorbance relative to the absorbance of the cells exposed to the negative control, which represented 100% cell viability.

[2] = test system: Hela (human cervical cancer cells lines); assay: MTT assay, growth inhibition; type: cell-based; conditions: 20 μM, 24 h
Procedure: as §1, §2, §3

[3] = test system: MCF-7 (human breast cancer cell lines); assay: MTT assay, growth inhibition; type: cell-based; conditions: MCF-7, 20 μM, 24 h
Procedure: as §1, §2, §3

Row | SMILES | inhibition ratio [1] | inhibition ratio [2] | inhibition ratio [3] | melting point
1 | COC1=C[C@@H]2[C@@H]3Cc4c(CN5CCCCC5)cc(OC)c(OC(=O)Cc5ccc(Cl)c(Cl)c5)c4[C@]2(CCN3C)CC1=O [5j, (4bR,8aS,9S)-3,7-dimethoxy-11-methyl-6-oxo-1-(piperidin-1-ylmethyl)-6,8a,9,10-tetrahydro-5H-9,4b-(epiminoethano)phenanthren-4-yl 2-(3,4-dichlorophenyl)acetate] | 89.57% | 80.22% | 63.35% | 143 to 146 °C
2 | COC1=C[C@@H]2[C@@H]3Cc4c(CN5CCCCC5)cc(OC)c(OC(=O)Cc5ccc(Cl)cc5Cl)c4[C@]2(CCN3C)CC1=O [5i, (4bR,8aS,9S)-3,7-dimethoxy-11-methyl-6-oxo-1-(piperidin-1-ylmethyl)-6,8a,9,10-tetrahydro-5H-9,4b-(epiminoethano)phenanthren-4-yl 2-(2,4-dichlorophenyl)acetate] | 90.69% | 94.43% | 54.13% | 135 to 137 °C
3 | COC1=C[C@@H]2[C@@H]3Cc4c(CN5CCCCC5)cc(OC)c(OC(=O)Cc5cccc(Cl)c5)c4[C@]2(CCN3C)CC1=O [5g, (4bR,8aS,9S)-3,7-dimethoxy-11-methyl-6-oxo-1-(piperidin-1-ylmethyl)-6,8a,9,10-tetrahydro-5H-9,4b-(epiminoethano)phenanthren-4-yl 2-(3-chlorophenyl)acetate] | more than 53.2% |  |  | 164 to 167 °C
